Assay [1] deals with hJAK2 (Homo sapiens (Human), UniProt O60674). Kind of assay: hJAK2 LANCE TR-FRET enzymatic assay. It is filed as biochemical. Particulars: read-out: JAK2 IC50.
The target in assay [2] is TBK1 (Homo sapiens (Human), UniProt Q9UHD2). In words: TBK1 TR-FRET enzymatic assay.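 Note: phosphorylation of a biotinylated Ser/Thr peptide by purified full-length recombinant TBK1, read by TR-FRET after 240 min at 25 °C, IC50 is the geometric mean of at least four runs.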
In assay [3] the target is IKKε (Homo sapiens (Human), UniProt Q14164). Kind of assay: IKKε TR-FRET enzymatic assay. The format is biochemical. The settings on record: read-out: IKKe IC50.
Sequence of IKKε (Q14164 whole entry): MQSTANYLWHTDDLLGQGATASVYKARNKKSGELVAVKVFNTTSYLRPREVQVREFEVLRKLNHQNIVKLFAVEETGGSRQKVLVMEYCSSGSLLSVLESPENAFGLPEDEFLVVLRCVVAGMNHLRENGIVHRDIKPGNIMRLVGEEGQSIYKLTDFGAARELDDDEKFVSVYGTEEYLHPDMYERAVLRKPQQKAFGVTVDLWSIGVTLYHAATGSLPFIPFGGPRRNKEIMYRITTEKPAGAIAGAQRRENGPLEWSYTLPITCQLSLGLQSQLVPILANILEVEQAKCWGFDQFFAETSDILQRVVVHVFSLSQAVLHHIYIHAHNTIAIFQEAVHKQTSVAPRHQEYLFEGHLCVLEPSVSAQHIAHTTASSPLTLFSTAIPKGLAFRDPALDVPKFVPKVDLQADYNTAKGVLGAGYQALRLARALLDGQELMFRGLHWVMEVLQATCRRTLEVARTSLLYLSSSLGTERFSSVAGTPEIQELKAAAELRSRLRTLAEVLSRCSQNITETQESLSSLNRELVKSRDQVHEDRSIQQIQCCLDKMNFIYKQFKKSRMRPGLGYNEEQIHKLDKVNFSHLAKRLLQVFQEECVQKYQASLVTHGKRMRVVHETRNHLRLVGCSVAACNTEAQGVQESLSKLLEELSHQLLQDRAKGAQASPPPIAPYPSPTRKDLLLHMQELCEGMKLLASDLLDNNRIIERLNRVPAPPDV

Sequence of TBK1 (Q9UHD2 whole entry): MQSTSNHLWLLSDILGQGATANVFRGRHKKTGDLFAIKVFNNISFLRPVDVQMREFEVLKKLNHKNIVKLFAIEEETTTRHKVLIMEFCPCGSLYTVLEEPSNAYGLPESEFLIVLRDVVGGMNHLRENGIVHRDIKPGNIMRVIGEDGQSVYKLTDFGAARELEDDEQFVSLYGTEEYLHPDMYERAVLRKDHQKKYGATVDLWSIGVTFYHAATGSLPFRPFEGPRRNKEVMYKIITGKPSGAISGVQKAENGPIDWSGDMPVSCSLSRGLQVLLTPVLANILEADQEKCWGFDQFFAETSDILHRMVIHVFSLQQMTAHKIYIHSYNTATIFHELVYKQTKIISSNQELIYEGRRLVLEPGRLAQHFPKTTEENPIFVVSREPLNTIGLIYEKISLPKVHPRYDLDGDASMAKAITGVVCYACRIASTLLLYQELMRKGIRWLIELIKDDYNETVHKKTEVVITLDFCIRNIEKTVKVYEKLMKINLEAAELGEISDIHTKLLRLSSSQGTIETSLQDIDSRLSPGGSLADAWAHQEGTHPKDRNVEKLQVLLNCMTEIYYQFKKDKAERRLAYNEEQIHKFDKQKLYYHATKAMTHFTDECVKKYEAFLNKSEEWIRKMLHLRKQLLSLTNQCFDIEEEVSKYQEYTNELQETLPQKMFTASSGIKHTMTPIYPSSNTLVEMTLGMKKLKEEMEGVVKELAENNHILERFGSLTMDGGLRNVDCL
Sequence of hJAK2 (O60674 whole entry): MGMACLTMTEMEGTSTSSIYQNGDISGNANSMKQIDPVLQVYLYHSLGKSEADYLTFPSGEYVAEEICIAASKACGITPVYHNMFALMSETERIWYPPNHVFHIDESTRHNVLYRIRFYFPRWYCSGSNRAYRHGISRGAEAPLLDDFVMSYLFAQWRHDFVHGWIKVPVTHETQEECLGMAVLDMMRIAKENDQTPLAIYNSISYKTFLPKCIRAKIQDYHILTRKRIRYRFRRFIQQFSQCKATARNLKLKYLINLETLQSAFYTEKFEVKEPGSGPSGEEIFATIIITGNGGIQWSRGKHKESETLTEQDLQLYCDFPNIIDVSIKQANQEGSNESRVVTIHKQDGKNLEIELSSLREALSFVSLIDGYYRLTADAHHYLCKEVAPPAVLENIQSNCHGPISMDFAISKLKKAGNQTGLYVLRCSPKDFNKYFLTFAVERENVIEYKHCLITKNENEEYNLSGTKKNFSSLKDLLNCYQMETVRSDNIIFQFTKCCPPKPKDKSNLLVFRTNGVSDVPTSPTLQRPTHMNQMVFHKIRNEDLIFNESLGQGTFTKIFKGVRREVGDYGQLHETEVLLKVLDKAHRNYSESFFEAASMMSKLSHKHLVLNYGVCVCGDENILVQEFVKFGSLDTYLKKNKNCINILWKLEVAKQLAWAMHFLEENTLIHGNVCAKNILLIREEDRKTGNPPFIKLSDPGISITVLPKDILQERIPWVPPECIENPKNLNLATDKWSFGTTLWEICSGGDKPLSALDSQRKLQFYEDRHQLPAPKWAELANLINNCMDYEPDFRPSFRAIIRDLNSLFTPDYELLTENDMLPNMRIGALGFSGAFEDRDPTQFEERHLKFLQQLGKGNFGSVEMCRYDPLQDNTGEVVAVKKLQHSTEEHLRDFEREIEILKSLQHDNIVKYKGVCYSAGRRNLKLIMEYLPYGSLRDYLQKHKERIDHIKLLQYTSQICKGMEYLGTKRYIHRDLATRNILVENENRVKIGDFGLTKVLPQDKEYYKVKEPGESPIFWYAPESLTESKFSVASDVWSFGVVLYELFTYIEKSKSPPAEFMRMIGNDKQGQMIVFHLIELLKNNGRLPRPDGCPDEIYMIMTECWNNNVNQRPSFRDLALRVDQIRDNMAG

Take `N#Cc1cc(-c2ncnc(Nc3ccc(N4CCN(C5COC5)CC4)cc3)n2)ccc1O[C@H]1CCN(C(=O)c2ncc[nH]2)C[C@H]1F` [Example 142, 2-(((3R,4S)-3-fluoro-1-(1H-imidazole-2-carbonyl)piperidin-4-yl)oxy)-5-(4-((4-(4-(oxetan-3-yl)piperazin-1-yl)phenyl)amino)-1,3,5-triazin-2-yl)benzonitrile]: the values for the IC50 in assay [1], in assay [2] and in assay [3] were 174 nM, 3 nM and 4 nM, respectively.

Consider `N#Cc1cc(-c2ncnc(Nc3ccc(N4CCN(C5COC5)CC4)cc3)n2)ccc1O[C@H]1CCN(C(=O)c2cnn[nH]2)C[C@H]1F` [Example 143, 2-(((3R,4S)-3-fluoro-1-(1H-1,2,3-triazole-5-carbonyl)piperidin-4-yl)oxy)-5-(4-((4-(4-(oxetan-3-yl)piperazin-1-yl)phenyl)amino)-1,3,5-triazin-2-yl)benzonitrile], for which the IC50 in assay [1] was found to be 84 nM; in assay [2] it was 2 nM; in assay [3], 1 nM.

On to `N#Cc1cc(-c2ncnc(Nc3ccc(N4CCN(C5COC5)CC4)cc3)n2)ccc1O[C@H]1CCN(C(=O)c2nnc[nH]2)C[C@H]1F` [Example 144, 2-(((3R,4S)-3-fluoro-1-(4H-1,2,4-triazole-3-carbonyl)piperidin-4-yl)oxy)-5-(4-((4-(4-(oxetan-3-yl)piperazin-1-yl)phenyl)amino)-1,3,5-triazin-2-yl)benzonitrile], for which the IC50 in assay [1] turned out to be 104 nM; in assay [2], 2 nM; in assay [3] it was 1 nM.

In the case of `N#Cc1cc(-c2ncnc(Nc3ccc(N4CCN(C5COC5)CC4)cc3)n2)ccc1O[C@H]1CCN(C(=O)c2ccn[nH]2)C[C@H]1F` [Example 145, 2-(((3R,4S)-3-fluoro-1-(1H-pyrazole-5-carbonyl)piperidin-4-yl)oxy)-5-(4-((4-(4-(oxetan-3-yl)piperazin-1-yl)phenyl)amino)-1,3,5-triazin-2-yl)benzonitrile], the results for the IC50 in assay [1], in assay [2] and in assay [3] were 219 nM, 2 nM and 1 nM, respectively.

Turning to `N#Cc1cc(-c2ncnc(Nc3ccc(N4CCN(C5COC5)CC4)cc3)n2)ccc1O[C@H]1CCN(C(=O)c2cnc[nH]2)C[C@H]1F` [Example 146, 2-(((3R,4S)-3-fluoro-1-(1H-imidazole-5-carbonyl)piperidin-4-yl)oxy)-5-(4-((4-(4-(oxetan-3-yl)piperazin-1-yl)phenyl)amino)-1,3,5-triazin-2-yl)benzonitrile], the IC50 in assay [1] was found to be 156 nM; in assay [2], 3 nM; in assay [3], 1 nM.

As to `Cn1cc(C(=O)N2CC[C@H](Oc3ccc(-c4ncnc(Nc5ccc(N6CCN(C7COC7)CC6)cc5)n4)cc3C#N)[C@H](F)C2)nn1` [Example 147, 2-(((3R,4S)-3-fluoro-1-(1-methyl-1H-1,2,3-triazole-4-carbonyl)piperidin-4-yl)oxy)-5-(4-((4-(4-(oxetan-3-yl)piperazin-1-yl)phenyl)amino)-1,3,5-triazin-2-yl)benzonitrile], the figures for the IC50 in assay [1], in assay [2] and in assay [3] were 184 nM, 3 nM and 1 nM, respectively.

Take `C[C@H](O)C(=O)N1CCC(Oc2ccc(-c3ncnc(Nc4ccc(N5CCN(C6COC6)CC5)cc4)n3)cc2C#N)C(F)(F)C1` (stereo partly drawn) [Example 154, 2-((3,3-difluoro-1-((S)-2-hydroxypropanoyl)piperidin-4-yl)oxy)-5-(4-((4-(4-(oxetan-3-yl)piperazin-1-yl)phenyl)amino)-1,3,5-triazin-2-yl)benzonitrile]: the IC50 in assay [1] is 168 nM; in assay [2], 1 nM; in assay [3], 3 nM.

Regarding `C[C@@H](O)C(=O)N1CCC(Oc2ccc(-c3ncnc(Nc4ccc(N5CCN(C6COC6)CC5)cc4)n3)cc2C#N)C(F)(F)C1` (stereo partly drawn) [Example 157, 2-((3,3-difluoro-1-((R)-2-hydroxypropanoyl)piperidin-4-yl)oxy)-5-(4-((4-(4-(oxetan-3-yl)piperazin-1-yl)phenyl)amino)-1,3,5-triazin-2-yl)benzonitrile], the results for the IC50 in assay [1], in assay [2] and in assay [3] were 188 nM, 3 nM and 14 nM, respectively.

Take `N#Cc1cc(-c2ncnc(Nc3ccc(N4CCN(C5COC5)CC4)cc3)n2)ccc1O[C@H]1CCN(C(=O)CCO)CC1(F)F` [Example 161, (S)-2-((3,3-difluoro-1-(3-hydroxypropanoyl)piperidin-4-yl)oxy)-5-(4-((4-(4-(oxetan-3-yl)piperazin-1-yl)phenyl)amino)-1,3,5-triazin-2-yl)benzonitrile]: the IC50 in assay [1] turned out to be 173 nM; in assay [2], 2 nM; in assay [3], 2 nM.

For `N#Cc1cc(-c2ncnc(Nc3ccc(N4CCN(C5COC5)CC4)cc3)n2)ccc1OC1CCN(C(=O)c2ccc[nH]2)CC1(F)F` (stereo not drawn) [Example 162, 2-((3,3-difluoro-1-(1H-pyrrole-2-carbonyl)piperidin-4-yl)oxy)-5-(4-((4-(4-(oxetan-3-yl)piperazin-1-yl)phenyl)amino)-1,3,5-triazin-2-yl)benzonitrile], the IC50 in assay [1] amounted to 583 nM; in assay [2], 5 nM; in assay [3], 4 nM.

In the case of `N#Cc1cc(-c2ncnc(Nc3ccc(N4CCN(C5COC5)CC4)cc3)n2)ccc1O[C@H]1CCN(C(=O)c2ccn[nH]2)CC1(F)F` [Example 164, (S)-2-((3,3-difluoro-1-(1H-pyrazole-5-carbonyl)piperidin-4-yl)oxy)-5-(4-((4-(4-(oxetan-3-yl)piperazin-1-yl)phenyl)amino)-1,3,5-triazin-2-yl)benzonitrile], the IC50 was determined as 155 nM in assay [1], 3 nM in assay [2] and 1 nM in assay [3].

Consider `N#Cc1cc(-c2ncnc(Nc3ccc(N4CCN(C5COC5)CC4)cc3)n2)ccc1O[C@H]1CCN(C(=O)c2cnc[nH]2)CC1(F)F` [Example 167, (S)-2-((3,3-difluoro-1-(1H-imidazole-5-carbonyl)piperidin-4-yl)oxy)-5-(4-((4-(4-(oxetan-3-yl)piperazin-1-yl)phenyl)amino)-1,3,5-triazin-2-yl)benzonitrile], for which the concentration for half-maximal inhibition (IC50) in assay [1] worked out at 104 nM; in assay [2] it was 3 nM; in assay [3], 1 nM.

For `C[C@@H]1C[C@@H](Oc2ccc(-c3ncnc(Nc4ccc(N5CCN(C6COC6)CC5)cc4)n3)cc2C#N)CCN1C(=O)CO` [Example 168, 2-(((2R,4S)-1-(2-hydroxyacetyl)-2-methylpiperidin-4-yl)oxy)-5-(4-((4-(4-(oxetan-3-yl)piperazin-1-yl)phenyl)amino)-1,3,5-triazin-2-yl)benzonitrile], the IC50 in assay [1] worked out at 877 nM; in assay [2] it was 15 nM; in assay [3], 61 nM.

Regarding `C[C@H]1C[C@@H](Oc2ccc(-c3ncnc(Nc4ccc(N5CCN(C6COC6)CC5)cc4)n3)cc2C#N)CCN1C(=O)CO` [Example 169, 2-(((2S,4S)-1-(2-hydroxyacetyl)-2-methylpiperidin-4-yl)oxy)-5-(4-((4-(4-(oxetan-3-yl)piperazin-1-yl)phenyl)amino)-1,3,5-triazin-2-yl)benzonitrile], the values for the IC50 in assay [1], in assay [2] and in assay [3] were 230 nM, 2 nM and 5 nM, respectively.

Consider `CC1CN(C(=O)CO)CCC1Oc1ccc(-c2ncnc(Nc3ccc(N4CCN(C5COC5)CC4)cc3)n2)cc1C#N` (stereo not drawn) [Example 170, 2-((1-(2-hydroxyacetyl)-3-methylpiperidin-4-yl)oxy)-5-(4-((4-(4-(oxetan-3-yl)piperazin-1-yl)phenyl)amino)-1,3,5-triazin-2-yl)benzonitrile], for which the IC50 in assay [1] is 255 nM; in assay [2], 3 nM; in assay [3], 8 nM.

The term IC50 denotes the point on the concentration scale where inhibition reaches its midpoint.

Source of the values: patent US10040781B2, “Tank-binding kinase inhibitor compounds” (Gilead Sciences, Inc., priority 2014, dated 2018).
